Measurements taken from publication PMC12693167, “Design, Synthesis and Anticancer Activity of 6-Substituted-1-(3,4,5-trimethoxyphenyl)-1H-indole Against Tubulin Polymerisation” (Molecules, 2025).

Key:
[1] = molecular target: T1, Porcine brain tubulin protein (Sus scrofa, UniProt P02554); test: In vitro tubulin polymerization assay; format: biochemical
T1 construct: Porcine brain tubulin protein was dissolved in EM buffer; from tissue; host or cells: porcine brain
Protocol: The ability of compound 3g to disrupt microtubule dynamics was assessed using an in vitro tubulin polymerization assay.
Porcine brain tubulin protein was dissolved in EM buffer containing 5% glycerol (80 mM PIPES, 2 mM GTP, 2 mM MgCl2, and 0.5 mM EGTA, pH 6.9). Compounds were diluted in EM buffer to final concentrations of 50, 25, 10, 5, and 2.5 μM and added to a pre-warmed 384-well plate, followed by pre-incubation at 37 °C. Subsequently, 14 μL of the tubulin-GTP mixture was added to each well containing the test compounds. Tubulin polymerization was monitored by measuring absorbance at 340 nm every minute for 60 min. […] Each assay was performed in triplicate.
Absorbance at 340 nm was determined every 1 min.

[2] = system: B16F10 melanoma tumors in BALB/c mice; test: In vivo antitumor efficacy, subcutaneous B16-F10 melanoma model; set-up: species or system mouse; details: paclitaxel 10 mg/kg i.p. once daily, 14 days, from tumor weight
Protocol: The in vivo antitumor activity of compound 3g was evaluated using a mouse melanoma tumor model in BALB/c mice. Tumors were established by subcutaneous inoculation of B16F10 cells, and treatment was initiated when tumors reached a measurable size. Mice were administered vehicle control, paclitaxel (PTX, 10 mg/kg), or compound 3g (20 and 50 mg/kg) via intraperitoneal injection once daily for 14 consecutive days.
All animal procedures were approved by the Animal Ethics Committee of the Naval Medical University (permit number: EC11-055). Male BALB/c mice (6–8 weeks old, average initial body weight approximately 18–20 g) were purchased from Shanghai SLAC Laboratory Animal Co., Ltd. The inhibitory effect of compound 3g was evaluated using a subcutaneous B16-F10 melanoma xenograft model. Log-phase B16F10 cells were suspended in PBS and subcutaneously injected into mice (200 μL containing 8 × 10^5 cells per mouse) to establish tumors. Mice were randomly divided into control and treatment groups (n = 8). Compound 3g and paclitaxel were dissolved in a vehicle consisting of DMSO:PEG:Tween-80:saline (v/v/v/v, 5:35:10:50) to the desired concentrations. Treatments (paclitaxel, 10 mg/kg; compound 3g, 20 and 50 mg/kg, doses calculated on a body-weight basis) and vehicle were administered once daily via intraperitoneal injection for 14 consecutive days. Body weights were monitored throughout the study to assess acute toxicity. Tumor volumes were measured using calipers and calculated with the formula: a × b^2 × 0.5, where a and b represent the larger and smaller tumor diameters, respectively. On day 14, mice were sacrificed and tumors were excised and weighed. […] Major organs (liver and kidneys) were collected, fixed in 4% paraformaldehyde, processed into paraffin sections, stained with hematoxylin and eosin (H&E), and examined microscopically.
Murine melanoma B16-F10 xenograft tumors were established in mice, which were then administered vehicle, PTX (10 mg/kg per day), compound 3g (20 mg/kg per day), and compound 3g (50 mg/kg per day) for 14 days. […]

T1 sequence (P02554 whole entry): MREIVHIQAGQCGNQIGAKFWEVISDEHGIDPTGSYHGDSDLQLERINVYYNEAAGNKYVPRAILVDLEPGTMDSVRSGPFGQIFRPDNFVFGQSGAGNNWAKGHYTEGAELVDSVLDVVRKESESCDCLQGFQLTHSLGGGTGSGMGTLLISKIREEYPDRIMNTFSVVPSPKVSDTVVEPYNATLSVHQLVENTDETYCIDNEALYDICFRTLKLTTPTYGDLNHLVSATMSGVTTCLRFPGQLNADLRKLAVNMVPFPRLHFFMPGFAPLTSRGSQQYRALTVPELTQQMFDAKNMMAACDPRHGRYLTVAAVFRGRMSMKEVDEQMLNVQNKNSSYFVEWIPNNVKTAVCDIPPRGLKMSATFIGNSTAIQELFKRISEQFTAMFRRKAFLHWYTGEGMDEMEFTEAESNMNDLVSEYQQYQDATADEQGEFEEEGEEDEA
T1 sequence (P02550 whole entry partner): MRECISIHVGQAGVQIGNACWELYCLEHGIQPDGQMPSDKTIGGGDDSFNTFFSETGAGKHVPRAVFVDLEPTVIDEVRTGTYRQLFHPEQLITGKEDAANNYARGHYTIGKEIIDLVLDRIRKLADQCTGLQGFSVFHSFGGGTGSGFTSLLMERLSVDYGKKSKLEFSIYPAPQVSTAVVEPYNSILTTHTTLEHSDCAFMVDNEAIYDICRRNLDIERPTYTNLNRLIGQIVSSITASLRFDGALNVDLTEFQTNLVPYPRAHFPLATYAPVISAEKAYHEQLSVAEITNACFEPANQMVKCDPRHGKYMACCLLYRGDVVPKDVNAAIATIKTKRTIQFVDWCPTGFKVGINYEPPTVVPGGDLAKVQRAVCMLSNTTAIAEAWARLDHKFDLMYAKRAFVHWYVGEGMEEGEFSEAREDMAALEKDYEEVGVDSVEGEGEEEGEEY

SMILES	IC50 ([1]; read-out: IC50, inhibitory effect on tubulin polymerization) [µM]	tumor growth inhibition (TGI) [2] [%]	effect on tubulin polymerization (positive controls) ([1]; 10 μM)
COc1cc(-n2ccc3ccc(Cl)cc32)cc(OC)c1OC [H1]	101		
CC(=O)O[C@H]1C(=O)[C@@]2(C)[C@H]([C@H](OC(=O)c3ccccc3)[C@]3(O)C[C@H](OC(=O)[C@H](O)[C@@H](NC(=O)c4ccccc4)c4ccccc4)C(C)=C1C3(C)C)[C@]1(OC(C)=O)CO[C@@H]1C[C@@H]2O [paclitaxel, reference compound]		59.84	stabilizing
